From paper PMC3610419, “A Randomized, Double-Blind Placebo Controlled Trial of Balapiravir, a Polymerase Inhibitor, in Adult Dengue Patients” (The Journal of Infectious Diseases, 2012)
Read-outs that look alike come from different tables or passages of the source.

Columns and labels:
[1] = tested on: DENV reference strains and clinical isolates; experiment: Inhibition of DENV replication in Huh-7 cells, summary over all strains; type: cell-based, dengue virus
Description: The mean and standard deviation shown represent 3 independent (different date) experiments for each virus tested. Huh-7 cells were plated in 96-well plate at 10,000 cells/well in DMEM containing 10 % FBS in 100 μl volume one day prior to set up of the assay. The following day the medium was aspirated off and diluted virus at a multiplicity of infection of 0.5 or media was added to the assay and control wells, respectively. The virus was allowed to attach to the cells for two hours at 37°C in a humidified 5% C02 atmosphere while the dilutions of the test molecule were prepared. Test molecules (or medium as a control) were added after aspiration of the virus-containing media 2 hours post-infection in 3-fold dilutions at a final DMSO concentration of 1%. After 48 hrs, cells were washed and cellular RNA were isolated. In this study, we used a quantitative real time PCR method to quantitate dengue viral RNA in Huh-7 in the presence of inhibitors. Viral RNA and endogenous 18S rRNA control (Applied Bio System) was quantified by a real time PCR assay using the following primers. […] Taqman was performed in duplicate. […] First ΔCt was calculated by subtracting 18S rRNA CT value from dengue RNA CT value. ΔCts from duplicate taqman assay were averaged. […] Relative quantification was calculated using the following formula. Relative quantification = 2^-averageΔΔCT. […]

DENV-2 = experiment: Inhibition of DENV replication in Huh-7 cells, viral RNA by quantitative real time PCR; type: cell-based, dengue virus; conditions: 48 hrs, mean ± SD of 3 experiments
Description: (§1) ^a Each experiment was done in duplicate. The mean and standard deviation shown represent 3 independent (different date) experiments for each virus tested. Huh-7 cells were plated in 96-well plate at 10,000 cells/well in DMEM containing 10 % FBS in 100 μl volume one day prior to set up of the assay. The following day the medium was aspirated off and diluted virus at a multiplicity of infection of 0.5 or media was added to the assay and control wells, respectively. The virus was allowed to attach to the cells for two hours at 37°C in a humidified 5% C02 atmosphere while the dilutions of the test molecule were prepared. Test molecules (or medium as a control) were added after aspiration of the virus-containing media 2 hours post-infection in 3-fold dilutions at a final DMSO concentration of 1%. After 48 hrs, cells were washed and cellular RNA were isolated. In this study, we used a quantitative real time PCR method to quantitate dengue viral RNA in Huh-7 in the presence of inhibitors. Viral RNA and endogenous 18S rRNA control (Applied Bio System) was quantified by a real time PCR assay using the following primers. Dengue Reverse (Common to all the serotypes): 5’-[…]-3’, Dengue forward serotype 1: 5’-[…]-3’, Dengue forward serotype 2 or 3: 5’-[…]-3’, Dengue forward serotype 4: 5’-[…] -3’ and Dengue probe (Common to all the serotypes): 5'-/56-FAM/[…]/3BHQ_1/-3'. Taqman was performed in duplicate. IC50 was obtained using the following calculations. First ΔCt was calculated by subtracting 18S rRNA CT value from dengue RNA CT value. ΔCts from duplicate taqman assay were averaged. Then ΔΔCt was obtained by subtracting the average ΔCt of non-treated sample from the treated sample average ΔCt. Relative quantification was calculated using the following formula. Relative quantification = 2^-averageΔΔCT. The 50% inhibitory concentrations (EC50) were calculated using the sigmoidal dose-response model in Microsoft XLfit.

DENV-1 = experiment: as above; type: cell-based, dengue virus; conditions: 48 hrs, mean ± SD of 3 experiments
Description: as §1

DENV-3 = experiment: as above; type: cell-based, dengue virus; conditions: 48 hrs, mean ± SD of 3 experiments
Description: as §1

DENV-4 = experiment: as above; type: cell-based, dengue virus; conditions: 48 hrs, mean ± SD of 3 experiments
Description: as §1

[2] = tested on: DENV-1, DENV-2, and DENV-4; experiment: Activity against DENV in primary human macrophages; type: cell-based; conditions: Dengue virus, Macrophage, DENV-1, DENV-2, DENV-4, data not shown, read-out: mean EC50 range
clinical = conditions: human, in vivo
Description: Randomization to treatment group was by computer-generated randomization sequencing in blocks of 2. Balapiravir was formulated in a 500-mg film-coated tablet. The placebo consisted of an identical looking tablet containing excipient only. All balapiravir and placebo tablets were provided by F. Hoffmann-La Roche. Patients in cohort 1 (n = 20) received 1500 mg of balapiravir or an identical placebo orally every 12 hours for 5 days (10 doses). The decision to dose escalate (to 3000 mg) was made after review of the partially unblinded group mean clinical and laboratory data acquired from patients in cohort 1. Patients in cohort 2 (n = 44) received 3000 mg of balapiravir or placebo orally twice a day for 5 days (10 doses).
Serum samples for pharmacokinetic investigations were collected at time 0 (predose) and 2, 4, 8, and 12 hours postdose on days 1 and 5. Pharmacokinetics parameters were calculated using noncompartmental methods.

[3] = cited from earlier work
[4] = tested on: DENV-1, DENV-2, and DENV-4; experiment: Activity against DENV in dendritic cells; type: cell-based; conditions: Dengue virus, Dendritic cell, DENV-1, DENV-2, DENV-4, data not shown, read-out: mean EC50 range

For C#C[C@@]1(O)[C@H](O)[C@@H](CO)O[C@H]1n1ccc2c(N)ncnc21 [NITD008, reference compound], the IC50 ([1]; Huh-7 cells, range over DENV strains, read-out: Mean values of median inhibitory concentration (IC50)) was 100 to 600 nM, the IC50 (DENV-2; DENV-2 strain 32/0102 (clinical isolate), Huh-7 cells) was 500 ± 200 nM and the IC50 (DENV-2; DENV-2 strain 32/0140 (clinical isolate), Huh-7 cells) was 300 nM. For the same compound, the IC50 (DENV-2; DENV-2 strain 33/0051 (clinical isolate), Huh-7 cells) was 400 ± 200 nM, the IC50 (DENV-2; DENV-2 strain 33/0178 (clinical isolate), Huh-7 cells) was 300 ± 200 nM and the IC50 (DENV-2; DENV-2 strain Th36, Huh-7 cells) was 500 ± 100 nM. It also gave an IC50 (DENV-1; DENV-1 strain FR28 (clinical isolate)) of 500 ± 100 nM, an IC50 (DENV-1; DENV-1 strain FR34 (clinical isolate)) of 500 ± 200 nM and an IC50 (DENV-1; DENV-1 strain FR37 (clinical isolate)) of 400 ± 100 nM. The IC50 (DENV-1; DENV-1 strain FR42 (clinical isolate)) was 500 ± 200 nM, the IC50 (DENV-1; DENV-1 strain Thsman) was 400 ± 100 nM and the IC50 (DENV-3; DENV-3 strain 33/0072 (clinical isolate), Huh-7 cells) was 500 ± 200 nM. It also gave an IC50 (DENV-3; DENV-3 strain 33/0096 (clinical isolate), Huh-7 cells) of 300 ± 100 nM, an IC50 (DENV-3; DENV-3 strain 33/0177 (clinical isolate), Huh-7 cells) of 300 nM and an IC50 (DENV-3; DENV-3 strain 33/0253 (clinical isolate), Huh-7 cells) of 600 nM. It also gave an IC50 (DENV-3; DENV-3 strain H87, Huh-7 cells) of 400 ± 100 nM, an IC50 (DENV-4; DENV-4 strain H241, Huh-7 cells) of 600 ± 100 nM and an IC50 (DENV-4; DENV-4 strain Phili/1567, Huh-7 cells) of 100 ± 100 nM. The IC50 (DENV-4; DENV-4 strain Senga/DA, Huh-7 cells) was 300 ± 100 nM and the IC50 (DENV-4; DENV-4 strain Venz/JQ, Huh-7 cells) was 200 ± 100 nM.

With [N-]=[N+]=N[C@]1(CO)O[C@@H](n2ccc(N)nc2=O)[C@H](O)[C@@H]1O [R1479, 4′-azidocytidine] the EC50 [2] was 1300 to 3200 nM, the EC50 ([1]; Dengue virus, Huh-7, read-out: mean half maximal effective concentration (EC50) values) was 1900 to 11000 nM and the Cmax (clinical) was 25 to 145 µM. For the same compound, the “mean Cmin concentrations that may need to be exceeded for antiviral effects on DENV” value (clinical) was 6.7 to 39 µM, the Cmax (clinical; 1500 mg, Cmax) was 16.5 µM and the Cmax (clinical; 1500 mg, plasma Cmax of R1479) was greater than 6 µM. For the same compound, the Cmax (clinical; 3000 mg, Cmax) was 23.9 µM, the “Cmax above the HCV replicon EC50” value ([3]; 500 mg balapiravir twice daily) was greater than 5 fold and the “mean plasma trough level above the human serum adjusted HCV replicon EC50” value ([3]; 1500 mg balapiravir twice daily) was 3.5 fold. For the same compound, the “ratio of mean plasma trough level to human serum adjusted HCV replicon EC50” value ([3]; 3000 mg balapiravir twice daily) was 4.9, the “ratio of mean plasma trough level to human serum adjusted HCV replicon EC50” value ([3]; 4500 mg balapiravir twice daily) was 7.8 and the EC50 [4] was 5200 to 6000 nM.
